The nature of series [1]: Caco2 assay (permeability, Papp A-B). Type of series: in vitro ADME. The note with it: human, Caco-2, absorptive direction (A-B), 50 μM test compound, 4% BSA in receiver. Summed up: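 Absorptive (A-B) Papp: 50 μM test compound in HBSS added to apical side of 22-25-day Caco-2 monolayers (TEER 300 Ω·cm^2), receiver buffer containing 4% BSA. After 120 min at 37 °C, 5% CO2, both sides analysed by LCMS; Papp calculated from flux rate normalized to area and donor amount.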

Another series has as its target KRAS G12D (Homo sapiens, UniProt P01116, G12D). Briefly: GDP-GTP exchange assay (KRAS G12D).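 Further: one dagger IC50 up to 100 nM and two daggers above 100 nM up to 1 μM.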 Type of series: biochemical. The note with it: bodipy-GDP/GppNHp exchange with SOS1; 4 h pre-incubation, 2 h reaction. Summed up: (§1)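 IC50 came from a four-parameter fit of fluorescence loss (485/520 nm) as SOS1 (150 nM) swapped bodipy-GDP for GppNHp (500 μM) on 2.5 nM KRAS, final concentrations. Compounds were pre-incubated 4 h at r.t. (pH 7.5 Hepes, 10 mM MgCl2); exchange ran 2 h (G12D) or 3 h (G12V).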

Another series has as its target KRAS G12V (Homo sapiens, UniProt P01116, G12V). Put plainly: GDP-GTP exchange assay (KRAS G12V).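 Further: one dagger IC50 up to 100 nM and two daggers above 100 nM up to 1 μM.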 Type of series: biochemical. The following applies: bodipy-GDP/GppNHp exchange with SOS1; 3 h incubation after GppNHp-SOS1. Summed up: as §1

Structures are written as SMILES.

Chain of KRAS G12V (P01116 1-188 isoform P01116-2 G12V): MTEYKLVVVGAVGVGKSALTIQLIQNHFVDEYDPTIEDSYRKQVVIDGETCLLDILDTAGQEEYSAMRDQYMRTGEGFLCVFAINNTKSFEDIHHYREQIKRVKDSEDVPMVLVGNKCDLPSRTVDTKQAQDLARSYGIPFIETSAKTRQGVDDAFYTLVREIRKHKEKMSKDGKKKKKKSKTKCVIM
Chain of KRAS G12D (P01116 1-188 isoform P01116-2 G12D): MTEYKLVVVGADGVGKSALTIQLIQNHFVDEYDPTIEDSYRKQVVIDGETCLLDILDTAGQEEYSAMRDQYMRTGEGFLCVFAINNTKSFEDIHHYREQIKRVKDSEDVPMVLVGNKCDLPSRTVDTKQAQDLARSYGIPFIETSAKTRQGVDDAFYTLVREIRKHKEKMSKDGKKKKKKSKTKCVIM

Consider `Cc1cnc(N2C[C@@H]3C[C@H](C2)N(C(=O)C2CC2)[C@H]3c2cc3c(C)nc4c(F)c(-c5cccc(Cl)c5Cl)c(CCC#N)cc4c3n2[C@H]2[C@H]3CN[C@@H]2C3)s1` (atropisomer, axis not shown; (Ra)) [Example 91, 3-((Ra)-1-((1R,4R,5S)-2-azabicyclo[2.1.1]hexan-5-yl)-2-((1S,5R,7R)-6-(cyclopropanecarbonyl)-3-(5-methylthiazol-2-yl)-3,6-diazabicyclo[3.2.1]octan-7-yl)-7-(2,3-dichlorophenyl)-6-fluoro-4-methyl-1H-pyrrolo[3,2-c]quinolin-8-yl)propanenitrile], for which the Papp A→B at 120 min, 50 μM in series [1] is at most 0.5 ×10⁻⁶ cm/s. Besides, the “G12D_exchange (KRAS_G12D exchange assay IC50)” value (shortened to “G12D_exchange”) on KRAS G12D is “†”. For the same molecule, on KRAS G12V, the “G12V_exchange (KRAS_G12V exchange assay IC50)” value (“G12V_exchange” for short) is given as “†”.
In series [1], `Cc1nc2c(F)c(-c3cccc(Cl)c3Cl)c(CCC#N)cc2c2c1cc([C@H]1[C@H]3C[C@H](CN(c4ncnn4C)C3)N1C(=O)C1CC1)n2[C@H]1[C@H]2CN[C@@H]1C2` (atropisomer, axis not shown; (Ra)) [Example 92, 3-((Ra)-1-((1R,4R,5S)-2-azabicyclo[2.1.1]hexan-5-yl)-2-((1S,5R,7R)-6-(cyclopropanecarbonyl)-3-(1-methyl-1H-1,2,4-triazol-5-yl)-3,6-diazabicyclo[3.2.1]octan-7-yl)-7-(2,3-dichlorophenyl)-6-fluoro-4-methyl-1H-pyrrolo[3,2-c]quinolin-8-yl)propanenitrile] gave a Papp A→B at 120 min, 50 μM of at most 0.5 ×10⁻⁶ cm/s. Also, the “G12D_exchange” value at KRAS G12D was “†”. The “G12V_exchange” value on KRAS G12V is “†”.
In series [1], `Cc1nc2c(F)c(-c3cccc(Cl)c3Cl)c(CCC#N)cc2c2c1cc([C@H]1[C@H]3C[C@H](CN(c4cscn4)C3)N1C(=O)C1CC1)n2[C@H]1[C@H]2CN[C@@H]1C2` (atropisomer, axis not shown; (Ra)) [Example 93, 3-((Ra)-1-((1R,4R,5S)-2-azabicyclo[2.1.1]hexan-5-yl)-2-((1S,5R,7R)-6-(cyclopropanecarbonyl)-3-(thiazol-4-yl)-3,6-diazabicyclo[3.2.1]octan-7-yl)-7-(2,3-dichlorophenyl)-6-fluoro-4-methyl-1H-pyrrolo[3,2-c]quinolin-8-yl)propanenitrile] showed a Papp A→B at 120 min, 50 μM of at most 0.5 ×10⁻⁶ cm/s. Further, on KRAS G12D, the “G12D_exchange” value was “†”. Besides, the “G12V_exchange” value on KRAS G12V is given as “†”.
`Cc1nc2c(F)c(-c3cccc(Cl)c3Cl)c(CCC#N)cc2c2c1cc([C@H]1[C@H]3C[C@H](CN(c4nc(C(F)(F)F)cs4)C3)N1C(=O)C1CC1)n2[C@H]1[C@H]2CN[C@@H]1C2` (atropisomer, axis not shown; (Ra)) [Example 94, 3-((Ra)-1-((1R,4R,5S)-2-azabicyclo[2.1.1]hexan-5-yl)-2-((1S,5R,7R)-6-(cyclopropanecarbonyl)-3-(4-(trifluoromethyl)thiazol-2-yl)-3,6-diazabicyclo[3.2.1]octan-7-yl)-7-(2,3-dichlorophenyl)-6-fluoro-4-methyl-1H-pyrrolo[3,2-c]quinolin-8-yl)propanenitrile] yielded a Papp A→B at 120 min, 50 μM in series [1] of at most 0.5 ×10⁻⁶ cm/s. Also, the “G12D_exchange” value at KRAS G12D is recorded as “†”. Also, the “G12V_exchange” value on KRAS G12V is recorded as “†”.
Turning to `Cc1nc(N2C[C@@H]3C[C@H](C2)N(C(=O)C2CC2)[C@H]3c2cc3c(C)nc4c(F)c(-c5cccc(Cl)c5Cl)c(CCC#N)cc4c3n2[C@H]2[C@H]3CN[C@@H]2C3)sc1C` (atropisomer, axis not shown; (Ra)) [Example 95, 3-((Ra)-1-((1R,4R,5S)-2-azabicyclo[2.1.1]hexan-5-yl)-2-((1S,5R,7R)-6-(cyclopropanecarbonyl)-3-(4,5-dimethylthiazol-2-yl)-3,6-diazabicyclo[3.2.1]octan-7-yl)-7-(2,3-dichlorophenyl)-6-fluoro-4-methyl-1H-pyrrolo[3,2-c]quinolin-8-yl)propanenitrile], the Papp A→B at 120 min, 50 μM in series [1] is at most 0.5 ×10⁻⁶ cm/s. Further, the “G12D_exchange” value on KRAS G12D was “†”. Moreover, on KRAS G12V, the “G12V_exchange” value is “†”.
`Cc1nc2c(F)c(-c3cccc(Cl)c3Cl)c(CCC#N)cc2c2c1cc([C@H]1[C@H]3C[C@H](CN(c4nc(C#N)cs4)C3)N1C(=O)C1CC1)n2[C@H]1[C@H]2CN[C@@H]1C2` (atropisomer, axis not shown; (Ra)) [Example 96, 2-((1S,5R,7R)-7-((Ra)-1-((1R,4R,5S)-2-azabicyclo[2.1.1]hexan-5-yl)-8-(2-cyanoethyl)-7-(2,3-dichlorophenyl)-6-fluoro-4-methyl-1H-pyrrolo[3,2-c]quinolin-2-yl)-6-(cyclopropanecarbonyl)-3,6-diazabicyclo[3.2.1]octan-3-yl)thiazole-4-carbonitrile]: the Papp A→B at 120 min, 50 μM in series [1] was at most 0.5 ×10⁻⁶ cm/s. Besides, the “G12D_exchange” value at KRAS G12D was “†”. Moreover, the “G12V_exchange” value on KRAS G12V is listed as “†”.
Consider `Cc1sc(N2C[C@@H]3C[C@H](C2)N(C(=O)C2CC2)[C@H]3c2cc3c(C)nc4c(F)c(-c5cccc(Cl)c5Cl)c(CCC#N)cc4c3n2[C@H]2[C@H]3CN[C@@H]2C3)nc1C#N` (atropisomer, axis not shown; (Ra)) [Example 97, 2-((1S,5R,7R)-7-((Ra)-1-((1R,4R,5S)-2-azabicyclo[2.1.1]hexan-5-yl)-8-(2-cyanoethyl)-7-(2,3-dichlorophenyl)-6-fluoro-4-methyl-1H-pyrrolo[3,2-c]quinolin-2-yl)-6-(cyclopropanecarbonyl)-3,6-diazabicyclo[3.2.1]octan-3-yl)-5-methylthiazole-4-carbonitrile], for which, in series [1], the Papp A→B at 120 min, 50 μM is at most 0.5 ×10⁻⁶ cm/s. The “G12D_exchange” value at KRAS G12D is “†”. On KRAS G12V, the “G12V_exchange” value is recorded as “†”.
`Cc1nc(N2C[C@@H]3C[C@H](C2)N(C(=O)C2CC2)[C@H]3c2cc3c(C)nc4c(F)c(-c5cccc(Cl)c5Cl)c(CCC#N)cc4c3n2[C@H]2[C@H]3CN[C@@H]2C3)sc1C#N` (atropisomer, axis not shown; (Ra)) [Example 98, 2-((1S,5R,7R)-7-((Ra)-1-((1R,4R,5S)-2-azabicyclo[2.1.1]hexan-5-yl)-8-(2-cyanoethyl)-7-(2,3-dichlorophenyl)-6-fluoro-4-methyl-1H-pyrrolo[3,2-c]quinolin-2-yl)-6-(cyclopropanecarbonyl)-3,6-diazabicyclo[3.2.1]octan-3-yl)-4-methylthiazole-5-carbonitrile]: the Papp A→B at 120 min, 50 μM in series [1] was at most 0.5 ×10⁻⁶ cm/s. The “G12D_exchange” value on KRAS G12D was “†”. In addition, the “G12V_exchange” value at KRAS G12V is reported as “†”.
`CCc1cnc(N2C[C@@H]3C[C@H](C2)N(C(=O)C2CC2)[C@H]3c2cc3c(C)nc4c(F)c(-c5cccc(Cl)c5Cl)c(CCC#N)cc4c3n2[C@H]2[C@H]3CN[C@@H]2C3)s1` (atropisomer, axis not shown; (Ra)) [Example 99, 3-((Ra)-1-((1R,4R,5S)-2-azabicyclo[2.1.1]hexan-5-yl)-2-((1S,5R,7R)-6-(cyclopropanecarbonyl)-3-(5-ethylthiazol-2-yl)-3,6-diazabicyclo[3.2.1]octan-7-yl)-7-(2,3-dichlorophenyl)-6-fluoro-4-methyl-1H-pyrrolo[3,2-c]quinolin-8-yl)propanenitrile] registered a Papp A→B at 120 min, 50 μM in series [1] of at most 0.5 ×10⁻⁶ cm/s. Further, the “G12D_exchange” value on KRAS G12D was “†”. Further, on KRAS G12V, the “G12V_exchange” value is given as “†”.

The record behind these values is patent US20250195536A1, “BICYCLOOCTANE KRAS INHIBITORS” (Incyte Corporation, priority 2023, published 2025).
